From paper PMC12257510, “Structure-Guided Design of a KMT9 Inhibitor Prodrug with Cellular Activity” (Journal of Medicinal Chemistry, 2025)

Columns and labels:
Type in all cases: cell-based
[1] = system: H4K12me1 levels in PC-3 M prostate tumor cells; test: Western blot of cellular H4K12me1 levels; settings: PC-3 M cells, 10 μM, 3 days
Method: 7 Cellular activity of prodrug compound 8. (A) Levels of H4K12me1 in PC-3 M prostate tumor cells cultured in the presence of DMSO (−), 10 μM compound 8 or compound 8-N for 3 days were analyzed by Western blot using the indicated antibodies. Histone H4 was used as control. (B, C) Proliferation of Caco-2 cells treated with DMSO (Ctrl), compound 8, or compound 8-N were measured by Xcelligence. Data represent means ± s.d (n = 3). (D) Proliferation of HepG2 cells upon treatment of DMSO (Ctrl) and compound 8.
Experiments were performed as previously described. Histones used for Western blot analysis were extracted from cells as following: Cells were harvested, washed with PBS, resuspended in Triton Extraction Buffer (TEB; PBS, Triton ×100, 2 mM PMSF, 0.02% NaN3), stored 10 min on ice, centrifuged, and supernatant was discarded. After washing cells, a second time with TEB, pellets were resuspended in 0.2 N HCl and histones were acid-extracted overnight at 4 °C. Upon centrifugation for 10 min at 2000 rpm, supernatant was collected and protein concentration was determined. Three days before harvesting, cells were transfected with siRNA as indicated. The following antibodies were used: anti-KMT9α (#27630, lot 20062017, Schüle Lab), antihistone H4 (#ab10158, lot GR322677–1, Abcam), anti-H4K12me1 (#27429, lot 27062017, Schüle Lab).

KMT9a [2] = biological target: T1, KMT9a (Homo sapiens, UniProt Q9Y5N5); test: CETSA in Caco-2 cells, KMT9; set-up: of endogenous KMT9 upon treatment with; endogenous in cells; host or cells: Caco-2
T1 sequence (Q9Y5N5 1-214): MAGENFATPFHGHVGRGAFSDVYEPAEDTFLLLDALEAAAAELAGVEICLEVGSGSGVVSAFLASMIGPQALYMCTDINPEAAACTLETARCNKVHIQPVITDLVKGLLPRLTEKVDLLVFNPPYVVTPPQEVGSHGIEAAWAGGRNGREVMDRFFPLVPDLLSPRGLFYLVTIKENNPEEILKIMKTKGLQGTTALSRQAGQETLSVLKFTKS
T1 sequence (Q9UI30 1-125 partner): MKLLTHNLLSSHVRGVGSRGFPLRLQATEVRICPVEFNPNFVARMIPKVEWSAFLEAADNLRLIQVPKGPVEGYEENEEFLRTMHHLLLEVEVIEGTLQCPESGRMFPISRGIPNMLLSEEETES
Method: (§1) For whole cell CETSA, the cells were incubated with 10/15 μM of compound 7b/8/8-N for 18 h. Then, cells were washed with cell culture medium, detached from the surface using trypsin, washed with PBS and the number of cells was determined. Cell concentration was adjusted to 3.6 × 10^7 cells/mL using in PBS with Complete (w/o EDTA, Roche) protease inhibitor. Then, cells were frozen in liquid nitrogen and thawed at 25 °C three times, before being divided in 16 aliquots. Each aliquot was heated to a defined temperature between 40 and 70 °C in a PCR cycler (16 well gradient, 55 °C ± 15). After 3 min incubation, aliquots were snap frozen in liquid nitrogen and thawed at 25 °C. Cell lysates were then centrifuged at 20,000 × g , 4 °C for 20 min. Supernatant were mixed with 5× loading buffer, heated to 70 °C for 5 min and analyzed by Western blotting essentially as previously described. For the CETSA performed with cell lysates, cells were directly harvested and lysed as described above. […]
Figure S4. […] Representative Western blots (A) and quantification (B) showing no obvious shifting melting temperatures (ΔT m) of endogenous KMT5A upon treatment with compound 7b compared to DMSO. […]
Representative Western blots (C) and quantification (D) showing no shifting melting temperatures (ΔT m) of endogenous KMT5A upon treatment with compound 8 compared to DMSO. […]

Caco-2 cells = test: Cell proliferation assay (X-Celligence), Caco-2; settings: Xcelligence, vs DMSO
Method: Cell proliferation was determined using the X-Celligence RTCA system (Roche). For real-time recording of SW480, Caco-2 cell proliferation, 5000 cells/well were seeded in 16 well E-plates (Roche). […] Cell indices were automatically recorded every 15 min. Relative velocities represent the change of the cell index over time. The sequences of the siRNAs (Stealth RNAi siRNAs; Life Technologies) used in the experiments have been previously described.

endogenous KMT9a = biological target: T2, endogenous KMT9a (Homo sapiens, UniProt Q9Y5N5); test: CETSA in intact SW480 cells, KMT9; settings: 18 h, vs DMSO
T2 construct: increased thermal stability of endogenous KMT9 in SW480 cell lysates; endogenous in cells; host or cells: SW480
T2 sequence (Q9Y5N5 1-214): T1 sequence (Q9Y5N5 1-214)
T2 sequence (Q9UI30 1-125 partner): T1 sequence (Q9UI30 1-125 partner)
Method: For whole cell CETSA, the cells were incubated with 10/15 μM of compound 7b/8/8-N for 18 h. Then, cells were washed with cell culture medium, detached from the surface using trypsin, washed with PBS and the number of cells was determined. Cell concentration was adjusted to 3.6 × 10^7 cells/mL using in PBS with Complete (w/o EDTA, Roche) protease inhibitor. Then, cells were frozen in liquid nitrogen and thawed at 25 °C three times, before being divided in 16 aliquots. Each aliquot was heated to a defined temperature between 40 and 70 °C in a PCR cycler (16 well gradient, 55 °C ± 15). After 3 min incubation, aliquots were snap frozen in liquid nitrogen and thawed at 25 °C. Cell lysates were then centrifuged at 20,000 × g , 4 °C for 20 min. Supernatant were mixed with 5× loading buffer, heated to 70 °C for 5 min and analyzed by Western blotting essentially as previously described. For the CETSA performed with cell lysates, cells were directly harvested and lysed as described above. The lysates were then split and incubated either with DMSO or 10 μM compound 7b for 2 h. Then, lysates were aliquoted again into 16 samples each and treated as described for the whole cell CETSA.

KMT9a [3] = biological target: T1, KMT9a; test: CETSA in HepG2 cells, KMT9; set-up: prodrug compound 8 can target endogenous KMT9; endogenous in cells; host or cells: HepG2; settings: vs DMSO
Method: as §1
Figure S5. […] Representative Western blots (D) and quantification (E) showing increased melting temperatures (ΔT m) of endogenous KMT9a upon treatment with compound 8 compared to DMSO. […] Representative Western blots (F) and quantification (G) showing no obvious shifting melting temperatures (ΔT m) of endogenous KMT5A upon treatment with compound 8 compared to DMSO. […]

CCOC(=O)[C@@H](N)CCN(CCCNCCc1ccc(Oc2ccc(Cl)cc2)c(F)c1)C[C@H]1C[C@@H](n2ccc3c(NC)ncnc32)[C@H](O)[C@@H]1O [compound 8, Ethyl (S)-2-amino-4-((3-((4-(4-chlorophenoxy)-3-fluorophenethyl)amino)propyl) (((1R,2R,3S,4R)-2,3-dihydroxy-4-(4-(methylamino)-7H-pyrrolo[2,3-d]pyrimidin-7-yl)cyclopentyl)methyl)amino)butanoate]
Levels of H4K12me1 [1]: reduced H4K12me1 levels
ΔTm at 15 µM (KMT9a [2]): 6.1 °C
Proliferation of Caco-2 cells (Caco-2 cells): strongly suppressed proliferation
ΔTm at 10 µM (endogenous KMT9a): 5 °C
ΔTm at 15 µM (KMT9a [3]): 8 °C
